Literature values as cited in patent US20080317843A1, “NANOPARTICULATE FORMULATIONS OF MODAFINIL” (Elan Corporation plc, priority 2006, published 2008).

How the values were obtained:
[1] = for share of trough concentration (Cminss) of circulating modafinil: after once daily dosing
CYP2C19 = CYP2C19 (Homo sapiens, UniProt P33261)
CYP3A4 = settings: chronic administration of modafinil 400 mg; substrates given orally
[2] = target: receptors for histamine-3 (Homo sapiens, UniProt Q9Y5N1); settings: pharmacologically relevant concentrations
Sequence of receptors for histamine-3 (Q9Y5N1 whole entry): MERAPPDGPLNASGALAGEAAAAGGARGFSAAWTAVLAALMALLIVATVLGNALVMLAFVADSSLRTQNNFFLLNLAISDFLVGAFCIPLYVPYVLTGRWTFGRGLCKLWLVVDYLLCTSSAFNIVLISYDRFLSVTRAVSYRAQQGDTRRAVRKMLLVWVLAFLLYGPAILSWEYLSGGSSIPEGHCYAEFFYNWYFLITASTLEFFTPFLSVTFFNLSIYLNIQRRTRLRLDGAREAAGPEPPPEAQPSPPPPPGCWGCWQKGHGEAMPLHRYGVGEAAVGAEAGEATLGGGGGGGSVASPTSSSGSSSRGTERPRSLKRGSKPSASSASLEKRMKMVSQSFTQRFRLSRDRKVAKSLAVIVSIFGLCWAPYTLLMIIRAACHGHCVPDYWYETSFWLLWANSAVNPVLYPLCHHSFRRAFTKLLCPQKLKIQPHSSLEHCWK

[3] = tested on: receptors for benzodiazepines; settings: pharmacologically relevant concentrations
receptors for GABA = settings: pharmacologically relevant concentrations
MAO-B = target: T1, MAO-B (Homo sapiens, UniProt P27338)
T1 sequence (P27338 1-520): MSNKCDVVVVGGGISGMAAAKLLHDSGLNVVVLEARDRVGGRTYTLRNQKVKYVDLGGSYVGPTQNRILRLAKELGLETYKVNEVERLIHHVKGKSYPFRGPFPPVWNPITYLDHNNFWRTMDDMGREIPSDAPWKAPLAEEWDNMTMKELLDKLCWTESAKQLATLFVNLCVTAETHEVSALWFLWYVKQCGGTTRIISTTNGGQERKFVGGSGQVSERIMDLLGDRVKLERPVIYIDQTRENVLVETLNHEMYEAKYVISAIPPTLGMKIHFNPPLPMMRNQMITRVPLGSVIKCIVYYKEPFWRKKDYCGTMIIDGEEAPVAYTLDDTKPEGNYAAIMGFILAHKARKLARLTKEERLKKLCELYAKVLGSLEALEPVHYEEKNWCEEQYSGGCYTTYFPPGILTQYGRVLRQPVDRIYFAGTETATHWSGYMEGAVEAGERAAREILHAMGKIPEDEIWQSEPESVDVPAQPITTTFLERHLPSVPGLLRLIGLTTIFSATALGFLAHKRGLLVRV

receptors for melatonin = settings: pharmacologically relevant concentrations
receptors for serotonin = settings: pharmacologically relevant concentrations
receptors for adenosine = settings: pharmacologically relevant concentrations
[4] = tested on: receptors for norepinephrine; settings: pharmacologically relevant concentrations

Sequence of CYP2C19 (P33261 whole entry): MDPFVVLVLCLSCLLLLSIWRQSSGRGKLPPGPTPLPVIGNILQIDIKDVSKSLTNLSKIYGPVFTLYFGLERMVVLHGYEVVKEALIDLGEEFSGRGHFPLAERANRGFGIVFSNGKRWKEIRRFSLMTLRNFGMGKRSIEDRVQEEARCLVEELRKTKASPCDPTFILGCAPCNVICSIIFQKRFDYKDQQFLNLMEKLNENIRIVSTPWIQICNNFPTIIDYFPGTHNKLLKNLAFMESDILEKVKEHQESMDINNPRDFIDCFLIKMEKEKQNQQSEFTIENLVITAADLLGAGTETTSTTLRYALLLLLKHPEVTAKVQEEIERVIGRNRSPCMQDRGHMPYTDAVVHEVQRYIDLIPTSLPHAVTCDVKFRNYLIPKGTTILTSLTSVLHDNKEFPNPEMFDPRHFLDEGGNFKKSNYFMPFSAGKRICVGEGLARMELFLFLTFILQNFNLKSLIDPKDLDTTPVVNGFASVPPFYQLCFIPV

NC(=O)C[S+]([O-])C(c1ccccc1)c1ccccc1 (single isomer, unassigned) [d-isomer]
share of trough concentration (Cminss) of circulating modafinil [1]: 10%

NC(=O)C[S@@+]([O-])C(c1ccccc1)c1ccccc1 (single isomer, unassigned) [l-isomer]
share of trough concentration (Cminss) of circulating modafinil [1]: 90% | total exposure relative to the d-isomer ([1]; at steady state): approximately three times | half-life relative to the d-isomer ([1]; humans): approximately three times

O=C(C[S+]([O-])C(c1ccccc1)c1ccccc1)NO (centres unmarked) [Adrafinil, 2-(diphenylmethyl) sulfinyl acetohydroxamic acid]
solubility in acetone: sparingly to slightly soluble | solubility in cyclohexane: practically insoluble | solubility in methanol: sparingly to slightly soluble | solubility in water: practically insoluble

NC(=O)CS(=O)(=O)C(c1ccccc1)c1ccccc1 [modafinil sulfone]
inhibition of CYP2C19 (CYP2C19): reversible inhibitors

NC(=O)C[S+]([O-])C(c1ccccc1)c1ccccc1 (centres unmarked) [modafinil, 2-[(diphenylmethyl)sulfinyl]acetamide]
systemic exposure to two CYP3A4 substrates, ethinyl estradiol, and triazolam (CYP3A4): decrease | binding to receptors for histamine-3 [2]: does not bind | effective elimination half-life ([1]; after multiple doses): about 15 hours | decrease in oral clearance (CL/F) ([1]; single dose 200 mg, 12 subjects mean age 63 years vs matched younger subjects): ~20% | delay of absorption and (tmax) if taken with food ([1]; with food): delayed by approximately one hour | effect of food on overall bioavailability ([1]; with food): no effect | binding to receptors for benzodiazepines [3]: does not bind | inhibition of the activities of phosphodiesterases II-V (phosphodiesterases II-V): does not inhibit | binding to receptors for GABA (receptors for GABA): does not bind | inhibition of CYP2C19 (CYP2C19): reversible inhibitors | solubility in acetone: sparingly to slightly soluble | aqueous insolubility (aqueous): < 1 mg/mL | solubility in cyclohexane: practically insoluble | solubility in methanol: sparingly to slightly soluble | solubility in water: practically insoluble | inhibition of the activity of MAO-B (MAO-B): does not inhibit | binding to receptors for melatonin (receptors for melatonin): does not bind | binding to receptors for serotonin (receptors for serotonin): does not bind | binding to receptors for adenosine (receptors for adenosine): does not bind | binding to receptors for norepinephrine [4]: does not bind
